Patent US8450374B2, “Pan-antagonists for the androgen receptor and androgen receptor mutants associated with anti-androgen withdrawal” (priority 2009, dated 2013)
Substitutions are numbered along the chain they refer to.

How the values were obtained:
Format in all cases: cell-based
LNCaP cells = test: LIVE/DEAD cytotoxicity assay; details: 1 μM, nine days, RPMI + 10% DCC-FBS
Description: FIG. 1. […] The pictures were taken after nine days of incubation in RPMI supplemented with 10% DCC-FBS plus indicated antiandrogens. B and C. Quantitative analysis of images.
Media was changed every 3 days and floating cells were centrifuged down and reseeded into dish. LIVE/DEAD reagent was added after 9 days culturing. Live cells (indicated by green fluorescence) were counted and compared to the number of dead cells (red).

GFP-AR = biological target: T1, GFP-AR (Homo sapiens, UniProt P10275); test: Nuclear localization of GFP-AR in CV-1 cells; details: 2 h after ligand addition; DHT 10 μM, other ligands 100 μM
T1 construct: expressed in transfected cells; host or cells: CV-1 monkey kidney cells
T1 sequence (P10275 1-920): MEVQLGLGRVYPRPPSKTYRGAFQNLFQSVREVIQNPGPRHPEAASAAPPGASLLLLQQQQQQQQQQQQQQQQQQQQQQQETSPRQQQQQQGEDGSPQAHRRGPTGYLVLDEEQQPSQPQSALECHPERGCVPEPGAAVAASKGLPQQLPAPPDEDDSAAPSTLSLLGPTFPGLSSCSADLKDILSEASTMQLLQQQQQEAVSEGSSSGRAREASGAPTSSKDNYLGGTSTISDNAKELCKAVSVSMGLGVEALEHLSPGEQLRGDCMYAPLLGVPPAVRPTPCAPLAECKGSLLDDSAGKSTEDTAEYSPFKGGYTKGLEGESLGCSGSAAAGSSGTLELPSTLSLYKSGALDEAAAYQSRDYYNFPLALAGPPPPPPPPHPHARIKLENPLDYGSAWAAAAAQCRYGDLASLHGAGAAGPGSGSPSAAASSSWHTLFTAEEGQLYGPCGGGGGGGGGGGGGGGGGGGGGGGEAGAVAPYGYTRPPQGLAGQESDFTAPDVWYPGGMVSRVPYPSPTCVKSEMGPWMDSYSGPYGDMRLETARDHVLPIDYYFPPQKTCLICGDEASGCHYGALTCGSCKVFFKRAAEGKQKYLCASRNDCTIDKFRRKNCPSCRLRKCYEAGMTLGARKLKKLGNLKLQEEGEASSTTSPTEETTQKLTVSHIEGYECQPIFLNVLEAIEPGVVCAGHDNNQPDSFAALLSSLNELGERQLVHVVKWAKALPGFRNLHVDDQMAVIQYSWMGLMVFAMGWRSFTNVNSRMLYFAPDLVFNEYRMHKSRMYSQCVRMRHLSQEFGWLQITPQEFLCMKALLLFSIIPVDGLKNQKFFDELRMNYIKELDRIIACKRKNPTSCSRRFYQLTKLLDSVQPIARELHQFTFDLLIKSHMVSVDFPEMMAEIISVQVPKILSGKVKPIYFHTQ
Description: Nuclear localization of GFP-AR in CV-1 cells grown in 10% charcoal stripped CCS/DMEM.
CV-1 monkey kidney cells were seeded in a 12 well plate at a concentration of 50,000 cells per well. After 24 h, the cells were transfected with GFP-AR in a solution of Opti-MEM and Lipofectamine 2000, and incubated overnight. The cells were then imaged on a fluorescent microscope, followed by the addition of 6 respective ligands, and control (DMSO vehicle). […] The cells were incubated for two hours and again imaged. The cells were fixed, and stained (DAPI) to image the nucleus.

[1] = biological target: T2, AR protein levels in LNCaP cells (Homo sapiens, UniProt P10275, T878A); test: AR downregulation by western blot, LNCaP cells; details: LNCaP cells, 10, 50 or 100 μM, 24 h
T2 construct: endogenous in cells; host or cells: LNCaP
T2 sequence (P10275 1-920 T878A): T1 sequence (P10275 1-920) with T878A
Description: (§1) Compounds that down regulate the levels of AR in prostate cancer may be effective in androgen dependent cells and anti-androgen resistant cells that over express the androgen receptor. […] LNCaP or CRW22RV1 cells were treated with 10 μM, 50 μM or 100 μM compound for 24 h. Cells were harvested and lysed. Cell lysates were analyzed by SDS-PAGE followed by immunostaining with anti-AR and anti-lamin antibodies (see FIGS. 15 and 16).

[2] = test system: AR protein levels in CRW22 cells; test: AR downregulation by western blot, CRW22RV1 cells; details: CRW22RV1 cells, 10, 50 or 100 μM, 24 h
Description: as §1

With `CN(C)CCCOc1cccc(-c2ccccc2S(=O)(=O)CC(C)(O)C(=O)Nc2ccc(C#N)c(C(F)(F)F)c2)c1` (stereo not shown) [PAN52] the “Viable cells (green) in fluorescence images” value (LNCaP cells) was “almost all cells”, the “Nuclear localization of GFP-AR fluorescence” value (GFP-AR) was “little to no nuclear localization” and the “AR protein levels relative to bicalutamide, DHT or DMSO controls” value [1] was “downregulation of AR protein levels”. For the same compound, the “AR protein levels relative to bicalutamide, DHT or DMSO controls” value [2] was “downregulation of AR protein levels”.
